# In US20060142279A1 (priority 2004, published 2006):
# Like-named read-outs stand apart in the source and are kept apart here.
# Experiments:
# [1] = tested on: dormant M. bovis BCG, expressing the luciferase gene on plasmid pSMT1; format: cell-based, Mycobacterium bovis; conditions: 7 days of anaerobiosis, then 5 days in drug free medium
# [2] = tested on: dormant Mycobacterium bovis BCG; format: cell-based
# [3] = tested on: dormant Mycobacterium tuberculosis (H37RV); assay: Wayne dormancy model, CFU assay; conditions: for reduction of the dormant bacteria (CFU compared to untreated control): drug added after 14 days, cultures collected after 22 days
smiles,measurement,setting,value
COc1nc2ccc(Br)cc2cc1C(c1ccccc1)C(O)(CCN(C)C)c1ccccc1 (stereo not drawn),melting point,,84 °C
"COc1nc2ccc(Br)cc2cc1[C@@H](c1ccccc1)[C@@](O)(CCN(C)C)c1cccc2ccccc12 [Compound 12, (αS, βR)-6-bromo-α-[2-(dimethylamino)ethyl]-2-methoxy-α-1-naphthalenyl-β-phenyl-3-quinolineethanol]","killing of dormant bacteria as compared to untreated control (Luciferase counts, RLU)",[1]; 0.1 μg/ml,about 0.5 log10
same,"killing of dormant bacteria as compared to untreated control (Luciferase counts, RLU)",[1]; 1 μg/ml,~2 log10
same,"reduction in bacterial survival as compared to untreated control (Luciferase counts, RLU)",[1]; 10 μg/ml,approximately 4 log10
same,reduction in CFU counts compared with untreated control,"[2]; 0.1 μg/ml, day 2 after anaerobiosis",~0.5 log10
same,reduction in CFU counts compared with untreated control,"[2]; 0.1 μg/ml, day 5 after anaerobiosis",~1.1 log10
same,reduction in CFU counts compared with untreated control,"[2]; 1 μg/ml, day 2 after anaerobiosis",~2.3 log10
same,reduction in CFU counts compared with untreated control,"[2]; 1 μg/ml, day 5 after anaerobiosis",~4.7 log10
same,reduction in CFU counts compared with untreated control,"[2]; 10 μg/ml, day 2 after anaerobiosis",approximately 4 log10
same,reduction in CFU counts compared with untreated control,"[2]; 10 μg/ml, day 5 after anaerobiosis",about 6 log10
same,reduction of the dormant bacteria (CFU compared to untreated control),[3]; 1 μg/ml,1.41 log10
COc1nc2ccc(Br)cc2cc1C(c1ccc(C)cc1)C(O)(CCN(C)C)c1cccc2ccccc12 (stereo not drawn) [Compound 71],reduction of the dormant bacteria (CFU compared to untreated control),[3]; 1 μg/ml,1.55 log10
same,reduction of the dormant bacteria (CFU compared to untreated control),[3]; 10 μg/ml,more than 2 log10
COc1nc2ccc(Br)cc2cc1C(c1ccccc1)C(O)(CCN(C)C)c1ccc2c(c1)OCO2 (stereo not drawn) [Compound 75],reduction of the dormant bacteria (CFU compared to untreated control),[3]; 1 μg/ml,0.87 log10
same,reduction of the dormant bacteria (CFU compared to untreated control),[3]; 10 μg/ml,1.14 log10
COc1nc2ccc(Br)cc2cc1C(c1ccccc1)C(O)(CCn1cncn1)c1cccc2ccccc12 (stereo not drawn) [Compound 172],reduction of the dormant bacteria (CFU compared to untreated control),[3]; 1 μg/ml,0.29 log10
same,reduction of the dormant bacteria (CFU compared to untreated control),[3]; 10 μg/ml,0.98 log10
"NNC(=O)c1ccncc1 [Isoniazid, reference compound]","effect on dormant bacteria (Luciferase counts), in words",[1]; 10 μg/ml,no effect
same,"effect on dormant bacteria, in words",[3]; 10 μg/ml,did not have any effect
"Cc1ncc([N+](=O)[O-])n1CCO [metronidazole, reference compound]","reduction in bacterial survival as compared to untreated control (Luciferase counts, RLU)",[1]; 10 μg/ml,2 log10
same,"effect on dormant bacteria, in words","[3]; 100 μg/ml, added at start",good efficacy
